Measured values reported in patent US11098040B2, “Compounds and methods of use” (Ferro Therapeutics, Inc., priority 2018, dated 2021).
Like-named read-outs stand apart in the source and are kept apart here.

Legend:
A549 = assay: Cell viability assay, A549 cells; assay type: cell-based
Experimental: Example 5: Inducer Compound Effect on Growth of A549 and KP4 Cells
Cell viability assay was performed to assess the potency of the compounds in cancer cell line KP4 (pancreatic ductal adenocarcinoma). Cells at a density of 1,000-10,000 cells/well were seeded in 96-well plates and incubated at 37° C. overnight. A series of 9 different concentrations of compound stocks (500×) were created by 3-fold serial dilution in DMSO. These compounds were further diluted in culture media and then added to cells so that the final DMSO concentration was equal to 0.25% or less. After 96 hours of incubation, 50 μL of CellTiter Glo reagent (Promega) was added to each well and luminescence was measured after 10 minutes using EnVision (PerkinElmer). All compounds were tested initially from 30 μM as the top concentration in duplicates (range of 4.6 nM-30 μM). […] Luminescence from cells treated with DMSO alone was set as Max and % of inhibition was calculated as follows: Inhibition %=(Max-Sample value)/Max*100. Data was analyzed using XL-fit software (ID Business Solutions Ltd.). IC50, relative IC50, or % of top inhibition was calculated. […]

786-O = assay: Cell proliferation (Alamar Blue) assay, 786-O renal cell carcinoma, with/without ferrostatin; assay type: cell-based; conditions: Homo sapiens, 786-0, Cell Line 786-O; read-out: IC50
Experimental: (§1) Cell viability assay was performed to assess the potency of the compounds in human cancer cell lines 786-O (renal cell carcinoma) and SJSA-1 (osteosarcoma). Additional cell lines, such as those described above in Example 4 as well as various others, e.g., pancreatic cancer cell lines (Panc 02.13, BxPC-3, Panc 12, Panc 02.03, Panc 6.03, PSN-1, HPAC, and Capan-1) and prostate cancer cell lines (PC-3, DU145, 22Rv1, NCI-H660, BPH1, LNCaP, BM-1604, and MDA PCa 2b), were tested for select compounds as shown in Table 25.
(§2) Cells (SJSA-1, 786-O and A431) were seeded (5000 cells/100 μL/well) in 96-well tissue culture plate and incubated at 37° C./5% CO2 for 16-24 hours. The cells were then treated with compounds (25 μL of 5×). The compound concentrations were 10-0.0005 μM prepared in 3-fold serial dilutions with final DMSO concentration of 1%. The plates were then incubated for 24 h at 37° C./5% CO2 in a moist environment. Then Alamar Blue™ reagent (final concentration 1×-12.5 μL) was added to each well and incubated for 1.5 hours at 37° C./5% CO2. The plates were read on fluorescence reader at 540 nm excitation and 590 nm emission wavelengths. The IC50 values were subsequently determined using a sigmoidal dose-response curve (variable slope) in GraphPad Prism® 5 software.
(§3) Studies have shown that lipophilic antioxidants, such as ferrostatin, can rescue cells from GPX4 inhibition-induced ferroptosis. For instance, mesenchymal state GPX4-knockout cells can survive in the presence of ferrostatin, however, when the supply of ferrostatin is terminated, these cells undergo ferroptosis (see, e.g., Viswanathan et al., Nature 547:453-7, 2017). […] Accordingly, the ability of a molecule to induce ferroptotic cancer cell death, and that such ability is admonished by the addition of ferrostatin, is clear indication that the molecule is an GPX4 inhibitor.

SJSA-1 = assay: Cell proliferation (Alamar Blue) assay, SJSA-1 osteosarcoma, with/without ferrostatin; assay type: cell-based, human; conditions: read-out: IC50
Experimental: as §1, §2, §3

KP4 = assay: Cell viability assay (CellTiter Glo), pancreatic ductal adenocarcinoma KP4; assay type: cell-based, human
In short: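 Luminescent ATP readout (CellTiter Glo) after 96 h compound exposure, normalized to DMSO-treated cells as maximum. Compounds ran in duplicate, nine 3-fold steps from 30 μM down to 4.6 nM, final DMSO ≤0.25%; KP4 plated overnight at 1,000–10,000 cells/well. Outputs: IC50, relative IC50 or % top inhibition.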

[1] = Whole blood stability, mouse; assay type: in vitro ADME
Source text: (§4) The results of the assay on stability in blood and IC50 values for pancreatic cancer cell line KP4 are given below in Table 24.

[2] = Whole blood stability, human; assay type: in vitro ADME
Source text: as §4

[3] = Homo sapiens, A549, Cell Line A549, read-out: IC50
[4] = Homo sapiens, SJSA-1, Cell Line SJSA-1
[5] = Homo sapiens, KP-4, Cell Line KP4, read-out: IC50
[6] = Homo sapiens, KP-4, 96 h, pancreatic cancer cell line KP4, 96 hours, CellTiter Glo, read-out: IC50 μM KP4
[7] = Homo sapiens, A549, A549, read-out: IC50 for A549

Compound	IC50 (A549; [3])	IC50 (786-O)	IC50 (SJSA-1; [4])	IC50 (KP4; [5])	also measured
C#CC(=O)N1[C@@H](c2ccc(F)cc2)c2[nH]c3ccccc3c2C[C@@H]1C1CCCC1 [Compound 177]	3.22 µM	0.0788 µM	0.0677 µM		
C#CC(=O)N1[C@@H](c2ccc(Br)cc2)c2[nH]c3ccccc3c2C[C@@H]1C [Compound 195]	16.4 µM	0.394 µM	0.256 µM		
C#CC(=O)N1[C@@H](C)Cc2c([nH]c3ccccc23)[C@@H]1C12CC(F)(C1)C2 [Compound 182]	> 30 µM	0.962 µM	0.667 µM		
COC(=O)[C@H]1Cc2c([nH]c3ccccc23)[C@H](c2ccc(C(=O)OC(C)(C)C)cc2)N1C(=O)C(C)(C)CCl [Compound 264]	4.45 µM			8.69 µM	
C#CC(=O)N1[C@@H](c2ccc(F)c(F)c2)c2[nH]c3ccccc3c2C[C@@H]1C [Compound 199]	19.5 µM	0.529 µM	0.338 µM		
C#CC(=O)N1[C@@H](c2c(F)cc(F)cc2F)c2[nH]c3ccccc3c2C[C@@H]1C [Compound 197]	5.64 µM	0.133 µM	0.0102 µM		
C[C@H]1Cc2c([nH]c3ccccc23)[C@H](c2ccc(N3CCOCC3)cc2)N1C(=O)/C=C/C(F)(F)F [Compound 230]	22 µM			> 30 µM	
C=C(C)C(=O)N1[C@@H](c2ccc(N3CCOCC3)cc2)c2[nH]c3ccccc3c2C[C@@H]1C [Compound 229]	> 30 µM			> 30 µM	
C/C=C/C(=O)N1[C@@H](c2ccc(N3CCOCC3)cc2)c2[nH]c3ccccc3c2C[C@@H]1C [Compound 228]	> 30 µM			> 30 µM	
C#CC(=O)N1[C@@H](CCCC)Cc2c([nH]c3ccccc23)[C@@H]1c1ccc(N2CCOCC2)cc1 [Compound 216]	22.2 µM	0.337 µM	0.163 µM		
C=CC(=O)N1[C@@H](c2ccc(N3CCOCC3)cc2)c2[nH]c3ccccc3c2C[C@@H]1C [Compound 238]	> 10 µM			> 10 µM	
CC#CC(=O)N1[C@@H](CCCC)Cc2c([nH]c3ccccc23)[C@@H]1c1ccc(F)cc1 [Compound 180]	28.4 µM	> 30 µM	> 30 µM		
[2H]C([2H])(Cl)C(=O)N1[C@@H](c2ccc(C(=O)NC34CC5CC(CC(C5)C3)C4)cc2)c2[nH]c3ccccc3c2C[C@@H]1C(=O)OC [Compound 250]	2.4 µM				
C[C@H]1Cc2c([nH]c3ccc(Cl)cc23)[C@H](c2ccc(N3CCOCC3)cc2)N1C(=O)CCl [Compound 120]	0.807 µM				IC50 (KP4; [6]): 0.1 to 0.5 µM
COC(=O)c1ccc([C@H]2c3[nH]c4ccc(Cl)cc4c3C[C@H](C(=O)OC)N2C(=O)CCl)cc1 [Example 93]					IC50 (A549; [7]): 0.25 µM
CC(C)=CC(=O)N1[C@@H](c2ccc(N3CCOCC3)cc2)c2[nH]c3ccccc3c2C[C@@H]1C [Compound 225]	> 30 µM	> 10 µM			
C[C@H]1Cc2c([nH]c3ccccc23)[C@H](c2ccc(C3(O)CCOCC3)cc2)N1C(=O)CCl [Compound 237]	1.86 µM			0.458 µM	
C#CC(=O)N1[C@@H](CCCCCC)Cc2c([nH]c3ccccc23)[C@@H]1c1ccc(F)cc1 [Compound 176]	4.1 µM		0.206 µM		IC50 (A549; Cell Line A549, read-out: IC50): 4.18 µM; IC50 (SJSA-1; Cell Line SJSA-1): 0.25 µM
COCCOCCOCCOCCOC(=O)[C@H]1Cc2c([nH]c3ccccc23)[C@H](c2ccc(NC34CC5CC(CC(C5)C3)C4)cc2)N1C(=O)CCl [Example 189]	4.11 µM		4.2 µM		
CC(C)(C)OC(=O)c1ccc([C@H]2c3[nH]c4ccccc4c3C[C@H](CO)N2C(=O)CCl)cc1 [Compound 257]	8.14 µM			10.4 µM	
C[C@H]1Cc2c([nH]c3ccc(Cl)cc23)[C@H](c2ccc(N3CCOCC3)cc2)N1C(=O)CCl [Example 120]				0.362 µM	IC50 (A549; [7]): 0.81 µM
CN(C)C(=O)[C@H]1Cc2c([nH]c3ccccc23)[C@H](c2ccc(N)cc2)N1C(=O)CCl [Compound 259]	7.97 µM			0.179 µM	IC50 (KP4; Cell Line KP4, read-out: IC50): 0.212 µM
C=CC(=O)N1[C@@H](c2ccc(C(=O)OC)cc2)c2[nH]c3ccccc3c2C[C@@H]1C(=O)OC [Compound 274]	11.8 µM			4.54 µM	
C[C@H]1Cc2c([nH]c3ccccc23)[C@H](c2ccc(C3(O)COC3)cc2)N1C(=O)CCl [Compound 236]	17.5 µM			1.2 µM	IC50 (KP4; Cell Line KP4, read-out: IC50): > 1 µM
COC(=O)[C@H]1Cc2c([nH]c3ccccc23)[C@H](c2ccc(O)cc2)N1C(=O)CCl [Compound 265]	25.4 µM				IC50 (KP4; [6]): 0.1 to 0.5 µM; Whole Blood Stability % Remaining at 37° C. Mouse ([1]; 0 min): 100.0%; Whole Blood Stability % Remaining at 37° C. Mouse ([1]; 30 min): 75.5%; Whole Blood Stability % Remaining at 37° C. Mouse ([1]; 60 min): 61.6%; Whole Blood Stability % Remaining at 37° C. Human ([2]; 0 min): 100.0%; Whole Blood Stability % Remaining at 37° C. Human ([2]; 30 min): 61.6%; Whole Blood Stability % Remaining at 37° C. Human ([2]; 60 min): 45.2%
CC(C)[C@H]1Cc2c([nH]c3ccccc23)[C@H](c2ccc(N3CCOCC3)cc2)N1C(=O)CCl [Compound 119]	12.8 µM			0.102 µM	
CC[C@H]1Cc2c([nH]c3ccccc23)[C@H](c2ccc(N3CCOCC3)cc2)N1C(=O)CCl [Compound 117]	4.71 µM				IC50 (KP4; [6]): < 0.01 µM; Whole Blood Stability % Remaining at 37° C. Mouse ([1]; 0 min): 100.0%; Whole Blood Stability % Remaining at 37° C. Mouse ([1]; 30 min): 92.3%; Whole Blood Stability % Remaining at 37° C. Mouse ([1]; 60 min): 45.8%; Whole Blood Stability % Remaining at 37° C. Human ([2]; 0 min): 100.0%; Whole Blood Stability % Remaining at 37° C. Human ([2]; 30 min): 80.5%; Whole Blood Stability % Remaining at 37° C. Human ([2]; 60 min): 70.3%
CC#CC(=O)N1[C@@H](c2ccc(C(=O)OC)cc2)c2[nH]c3ccccc3c2C[C@@H]1C(=O)OC [Compound 272]	6.45 µM			3.99 µM	
C[C@H]1Cc2c([nH]c3ccc(C(C)(C)O)cc23)[C@H](c2ccc(N3CCOCC3)cc2)N1C(=O)CCl [Compound 235]	7.18 µM			0.041 µM	
C[C@H]1Cc2c([nH]c3ccccc23)[C@@H](c2ccc(S(=O)(=O)NC3CC3)cc2F)N1C(=O)CCl (single isomer, unassigned) [Compound 161]		2.8 µM	4.3 µM		
